Assay [1] addresses human mPGES-1 (Homo sapiens (Human), UniProt O14684). Nature of the assay: mPGES-1 inhibitory activity test. It counts as biochemical. The settings on record: microsomes of CHO-K1 cells expressing human mPGES-1, PGH2 1 μM, PGE2 by HTRF; read-out: mPGES-1 inhibition (IC50 nM). On the procedure:
mPGES-1 microsomal specimens were prepared by transiently transfecting CHO-K1 cells (DS Pharma Biomedical Co. Ltd) with a plasmid encoding human mPGES-1 cDNA using FuGENE 6 Transfection Reagent (Promega). The prepared mPGES-1 microsome specimens were diluted in potassium phosphate buffer of pH 7.4 comprising 2.5 mM reduced glutathione (Sigma-Aldrich), DMSO solution of a test compound or DMSO was added to a final concentration of 1% of DMSO, and then incubated at 4° C. for 20 minutes. The enzymatic reaction was then initiated by adding a solution of PGH2 (Cayman chemical) substrate of a final concentration 1 μM and incubated at 4° C. for 60 seconds. The reaction was terminated by adding a solution of ferric chloride (STREM CHEMICALS) and citric acid (Wako Pure Chemical Industries) salt to a final concentration of 5 mg/mL and 250 mM, respectively. The formed PGE2 was quantified using the HTRF kit (Cisbio International). Solutions without the test compound were used as positive controls, and solutions without the test compound and microsomal specimens were used as negative controls. 100% activity was defined as production of PGE2 in the positive control minus that in the negative control. The percentage inhibition of production of PGE2 at final concentrations of 10 nM and 100 nM of the test compound was then calculated, or IC50 values were determined using standard methods.

Assay [2] has as its system human A549 cells. Nature of the assay: Inhibition test of PGE2 production using human A549 cells. It counts as cell-based. The settings on record: IL-1β stimulated A549 cells, 24 h, PGE2 by HTRF, read-out: A549 cell inhibition of PGE2 production IC50. As to the method: 100 μL of RPMI medium (Sigma) comprising 10% FBS and human A549 cells was seeded in a 96-well plate to […] cells per well, and incubated overnight. The medium was then removed and washed with phosphate-buffered saline, and added to a DMSO solution of the test compound or RPMI medium comprising 3% FBS with DMSO to a final concentration of 0.1% DMSO. After incubation for 60 minutes, IL-1P (5 ng/well, BioLegend) was added to the solution. After incubation at 37° C. for 24 h, PGE2 in the medium was quantified using the HTRF kit (Cisbio International) and PGF2a was also quantified using the EIA kit (Cayman chemical). Solutions without the test compound were used as positive controls, and solutions without the test compound and IL-1β were used as negative controls. 100% activity was defined as production of PGE2 and PGF2a in the positive control minus those in the negative control. IC50 values were then determined using standard methods.

The structures appear in SMILES notation. Structures can show the parent of a compound that is named as a salt.

The text below walks through data of patent US20250059172A1, “INDAZOLE COMPOUND AND PHARMACEUTICAL” (NIPPON SHINYAKU CO., LTD., priority 2021, published 2025).

Chain of human mPGES-1 (O14684 whole entry): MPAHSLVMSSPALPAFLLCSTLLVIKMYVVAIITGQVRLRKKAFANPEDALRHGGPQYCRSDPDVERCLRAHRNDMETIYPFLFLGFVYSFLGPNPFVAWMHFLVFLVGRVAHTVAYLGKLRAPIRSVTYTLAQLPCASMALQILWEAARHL

For the compound `O=C(Nc1cccc2c1cnn2-c1ccc(C(F)(F)F)cc1)c1cc(CNC(=O)C2CC2)ccc1Cl` [Example 1, 2-Chloro-5-{[(cyclopropylcarbonyl)amino]methyl}-N-{1-[4-(trifluoromethyl)phenyl]-1H-indazol-4-yl}benzamide], the values for the IC50 in assay [1] and in assay [2] were 1.5 nM and 4.5 nM, respectively.

Regarding `O=C(Nc1cccc2c1cnn2-c1ccccc1)c1cc(CNC(=O)C2CC2)ccc1Cl` [Example 2, 2-Chloro-5-{[(cyclopropylcarbonyl)amino]methyl}-N-(1-phenyl-1H-indazol-4-yl)benzamide], the values for the IC50 in assay [1] and in assay [2] were 0.2 nM and 6.3 nM, respectively.

Turning to `O=C(Nc1cccc2c1cnn2-c1cccc(C(F)(F)F)c1)c1cc(CNC(=O)C2CC2)ccc1Cl` [Example 3, 2-Chloro-5-{[(cyclopropylcarbonyl)amino]methyl}-N-{1-[3-(trifluoromethyl)phenyl]-1H-indazol-4-yl}benzamide], the 50% inhibitory concentration (IC50) in assay [1] stood at 1.2 nM; in assay [2], 0.7 nM.

Consider `O=C(Nc1cccc2c1cnn2-c1cccnc1)c1cc(CNC(=O)C2CC2)ccc1Cl` [Example 4, 2-Chloro-5-{[(cyclopropylcarbonyl)amino]methyl}-N-[1-(pyridin-3-yl)-1H-indazol-4-yl]benzamide hydrochloride], for which the IC50 in assay [1] is 18.8 nM.

Consider `O=C(Nc1cccc2c1cnn2-c1ccncc1)c1cc(CNC(=O)C2CC2)ccc1Cl` [Example 5, 2-Chloro-5-{[(cyclopropylcarbonyl)amino]methyl}-N-[1-(pyridin-4-yl)-1H-indazol-4-yl]benzamide hydrochloride], for which the figures for the IC50 in assay [1] and in assay [2] were 9.6 nM and 688 nM, respectively.

Take `Cc1ccc(-n2ncc3c(NC(=O)c4cc(CNC(=O)C5CC5)ccc4Cl)cccc32)cc1` [Example 6, 2-Chloro-5-{[(cyclopropylcarbonyl)amino]methyl}-N-[1-(4-methylphenyl)-1H-indazol-4-yl]benzamide]: the half-inhibitory concentration (IC50) came out at 1.3 nM in assay [1] and 0.6 nM in assay [2].

For `Cc1cccc(-n2ncc3c(NC(=O)c4cc(CNC(=O)C5CC5)ccc4Cl)cccc32)c1` [Example 7, 2-Chloro-5-{[(cyclopropylcarbonyl)amino]methyl}-N-[1-(3-methylphenyl)-1H-indazol-4-yl]benzamide], the IC50 in assay [1] is 1.8 nM; in assay [2], 1.6 nM.

With `O=C(Nc1cccc2c1cnn2-c1ccccn1)c1cc(CNC(=O)C2CC2)ccc1Cl` [Example 8, 2-Chloro-5-{[(cyclopropylcarbonyl)amino]methyl}-N-[1-(pyridin-2-yl)-1H-indazol-4-yl]benzamide], the IC50 in assay [1] amounted to 3.9 nM; in assay [2] it was 11.3 nM.

Take `Cc1ccccc1-n1ncc2c(NC(=O)c3cc(CNC(=O)C4CC4)ccc3Cl)cccc21` [Example 9, 2-Chloro-5-{[(cyclopropylcarbonyl)amino]methyl}-N-[1-(2-methylphenyl)-1H-indazol-4-yl]benzamide]: the IC50 in assay [1] was 2.2 nM; in assay [2] it was 4.1 nM.

Turning to `Cc1ccc(-n2ncc3c(NC(=O)c4cc(CNC(=O)C5CC5)ccc4Cl)cccc32)cn1` [Example 10, 2-Chloro-5-{[(cvclopropylcarbonyl)amino]methyl}-N-[1-(6-methylpyridin-3-yl)-1H-indazol-4-yl]benzamide hydrochloride], the IC50 in assay [1] was determined as 10 nM; in assay [2], 31.2 nM.

With `O=C(Nc1cccc2c1cnn2-c1cncc(C(F)(F)F)c1)c1cc(CNC(=O)C2CC2)ccc1Cl` [Example 11, 2-Chloro-5-{[(cvclopropylcarbonyl)amino]methyl}-N-{1-[5-(trifluoromethyl)pyridin-3-yl]-1H-indazol-4-yl}benzamide], the IC50 in assay [1] turned out to be 2.9 nM; in assay [2], 3.4 nM.

`O=C(Nc1cccc2c1cnn2-c1ccc(C(F)(F)F)nc1)c1cc(CNC(=O)C2CC2)ccc1Cl` [Example 12, 2-Chloro-5-{[(cyclopropylcarbonyl)amino]methyl}-N-{1-[6-(trifluoromethyl)pyridin-3-yl]-1H-indazol-4-yl}benzamide]: the IC50 in assay [1] worked out at 2.7 nM; in assay [2], 1.1 nM.

As for `COc1ccccc1-n1ncc2c(NC(=O)c3cc(CNC(=O)C4CC4)ccc3Cl)cccc21` [Example 13, 2-Chloro-5-{[(cyclopropylcarbonyl)amino]methyl}-N-[1-(2-methoxyphenyl)-1H-indazol-4-yl]benzamide], the IC50 was 2 nM in assay [1] and 505 nM in assay [2].

As for `CC(C)(C)c1ccc(-n2ncc3c(NC(=O)c4cc(CNC(=O)C5CC5)ccc4Cl)cccc32)cc1` [Example 14, N-[1-(4-tert-butylphenyl)-1H-indazol-4-yl]-2-chloro-5-{[(cyclopropylcarbonyl)amino]methyl}benzamide], the results for the IC50 in assay [1] and in assay [2] were 1.1 nM and 0.4 nM, respectively.

As for `Cc1c(Cl)cccc1-n1ncc2c(NC(=O)c3cc(CNC(=O)C4CC4)ccc3Cl)cccc21` [Example 15, 2-Chloro-N-[1-(3-chloro-2-methylphenyl)-1H-indazol-4-yl]-5-{[(cyclopropylcarbonyl)amino]methyl}benzamide], the figures for the IC50 in assay [1] and in assay [2] were 5.6 nM and 7.8 nM, respectively.

With `O=C(Nc1cccc2c1cnn2-c1cccc(C(F)(F)F)c1)c1c(F)ccc(CNC(=O)C2CC2)c1F` [Example 16, 3-{[(Cyclopropylcarbonyl)amino]methyl}-2,6-difluoro-N-{1-[3-(trifluoromethyl)phenyl]-1H-indazol-4-yl}benzamide], the IC50 in assay [1] was determined as 6.3 nM; in assay [2], 9.7 nM.

Turning to `O=C(Nc1cccc2c1cnn2-c1ccc(C(F)(F)F)cc1)c1cc(CNC(=O)C(F)(F)F)ccc1Cl` [Example 17, 2-Chloro-5-{[(trifluoroacetyl)amino]methyl}-N-{1-[4-(trifluoromethyl)phenyl]-1H-indazol-4-yl}benzamide], the IC50 worked out at 17 nM in assay [1] and 1.6 nM in assay [2].

As to `CC(=O)NCc1ccc(Cl)c(C(=O)Nc2cccc3c2cnn3-c2ccc(C(F)(F)F)cc2)c1` [Example 18, 5-[(Acetylamino)methyl]-2-chloro-N-{1-[4-(trifluoromethyl)phenyl]-1H-indazol-4-yl}benzamide], the IC50 in assay [1] was 84.7 nM; in assay [2], 52.4 nM.

On to `CCC(=O)NCc1ccc(Cl)c(C(=O)Nc2cccc3c2cnn3-c2ccc(C(F)(F)F)cc2)c1` [Example 19, 2-Chloro-5-[(propanoylamino)methyl]-N-{1-[4-(trifluoromethyl)phenyl]-1H-indazol-4-yl}benzamide], for which the values for the IC50 in assay [1] and in assay [2] were 6.1 nM and 1 nM, respectively.

For `CC(C)(C)CC(=O)NCc1ccc(Cl)c(C(=O)Nc2cccc3c2cnn3-c2ccc(C(F)(F)F)cc2)c1` [Example 20, 2-Chloro-5-{[(3,3-dimethylbutanoyl)amino]methyl}-N-{1-[4-(trifluoromethyl)phenyl]-1H-indazol-4-yl}benzamide], the IC50 in assay [1] is less than 1 nM; in assay [2] it was 2.8 nM.

As for `COCC(=O)NCc1ccc(Cl)c(C(=O)Nc2cccc3c2cnn3-c2ccc(C(F)(F)F)cc2)c1` [Example 21, 2-Chloro-5-{[(methoxyacetyl)amino]methyl}-N-{1-[4-(trifluoromethyl)phenyl]-1H-indazol-4-yl}benzamide], the IC50 is 3.8 nM in assay [1] and 68 nM in assay [2].

Consider `O=C(NCc1ccc(Cl)c(C(=O)Nc2cccc3c2cnn3-c2ccc(C(F)(F)F)cc2)c1)c1ccccc1` [Example 22, 2-Chloro-5-{[(phenylcarbonyl)amino]methyl}-N-{1-[4-(trifluoromethyl)phenyl]-1H-indazol-4-yl}benzamide], for which the results for the IC50 in assay [1] and in assay [2] were 3.3 nM and 12.8 nM, respectively.

As to `O=C(Nc1cccc2c1cnn2-c1ccc(C(F)(F)F)cc1)c1cc(CNS(=O)(=O)C2CC2)ccc1Cl` [Example 23, 2-Chloro-5-{[(cyclopropylsulfonyl)amino]methyl}-N-{1-[4-(trifluoromethyl)phenyl]-1H-indazol-4-yl}benzamide], the figures for the IC50 in assay [1] and in assay [2] were 5.2 nM and 1.5 nM, respectively.

As for `CN(C)CC(=O)NCc1ccc(Cl)c(C(=O)Nc2cccc3c2cnn3-c2ccc(C(F)(F)F)cc2)c1` [Example 24, 2-Chloro-5-{[(N,N-dimethylglycyl)amino]methyl}-N-{1-[4-(trifluoromethyl)phenyl]-1H-indazol-4-yl}benzamide hydrochloride], the IC50 was determined as 57.1 nM in assay [1] and 46.4 nM in assay [2].

In the case of `CC#CC(=O)NCc1ccc(Cl)c(C(=O)Nc2cccc3c2cnn3-c2ccc(C(F)(F)F)cc2)c1` [Example 42, 5-[(2-Butynoylamino)methyl]-2-chloro-N-{1-[4-(trifluoromethyl)phenyl]-1H-indazol-4-yl}benzamide], the IC50 in assay [1] turned out to be 391 nM.
